# Like-named read-outs stand apart in the source and are kept apart here.
# Legend:
# hERβ [1] = assay type: binding, human; details: for ERβ/ ER: quotient of RBA to hERβ and hER
# Rat prost. ER = experiment: Estrogen receptor binding study, competition with 3H-estradiol, rat prostate cytosol
# [2] = target: human estrogen receptor α (ERα) (Homo sapiens, UniProt P03372); details: cited from earlier work
# Rat uterus ER = experiment: Estrogen receptor binding study, competition with 3H-estradiol, rat uterus cytosol; details: 3H-estradiol as ligand, estradiol = 100
# hERβ [3] = details: cited from earlier work
# [4] = reported, source not given; cited from earlier work
# [5] = Endocrinology 63, 464 (1958); cited from earlier work
# [6] = enantio form; J. Med. Chem. 10, 199-204 1967; cited from earlier work
# human estrogen receptor α (ERα), sequence (P03372 whole entry): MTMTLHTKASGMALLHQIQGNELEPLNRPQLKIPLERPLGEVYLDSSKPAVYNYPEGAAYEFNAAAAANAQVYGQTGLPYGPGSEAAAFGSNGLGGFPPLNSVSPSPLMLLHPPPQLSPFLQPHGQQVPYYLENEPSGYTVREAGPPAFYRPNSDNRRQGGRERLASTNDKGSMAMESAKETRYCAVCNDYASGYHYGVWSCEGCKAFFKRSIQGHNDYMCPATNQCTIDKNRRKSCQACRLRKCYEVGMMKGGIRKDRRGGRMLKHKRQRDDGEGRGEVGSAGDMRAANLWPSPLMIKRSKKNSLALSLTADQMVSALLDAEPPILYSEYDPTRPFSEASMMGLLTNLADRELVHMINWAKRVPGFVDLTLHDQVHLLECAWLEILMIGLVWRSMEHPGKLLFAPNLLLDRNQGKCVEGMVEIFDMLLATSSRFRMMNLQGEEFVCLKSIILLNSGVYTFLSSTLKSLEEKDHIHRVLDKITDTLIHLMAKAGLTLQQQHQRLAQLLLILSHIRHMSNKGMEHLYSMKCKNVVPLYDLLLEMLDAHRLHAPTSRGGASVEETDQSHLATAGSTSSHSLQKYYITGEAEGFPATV
structure (smiles),measurement,setting,value
C[C@]12CC[C@@H]3c4ccc(O)cc4CC[C@H]3[C@@H]1C[C@@H](O)C2=O [16α-hydroxyestrone],binding to the human estrogen receptor β (ERβ) compared with the human estrogen receptor α (ERα),hERβ [1]; some studies,three times better
same,RBA value on the rat prostate estrogen receptor compared with the RBA value on the rat uterus estrogen receptor,Rat prost. ER; some studies,five times better
"O=c1c(-c2ccc(O)cc2)coc2cc(O)cc(O)c12 [Geni-steine, Genisteine]",ERβ/ ER,hERβ [1],7
"C[C@]12CC[C@H]3[C@@H](CC=C4C[C@@H](O)CC[C@@]43C)[C@@H]1CC[C@@H]2O [5-Andro-stene-diol, 5-Androstenediol]",hER RBA*,[2],6
same,Rat uterus ER(RBA),Rat uterus ER,0.1
same,ERβ/ ER,hERβ [1],3
same,Rat prost. ER(RBA),"Rat prost. ER; 3H-estradiol as ligand, prostate cytosol, estradiol = 100",5
same,prost. ER/uterus ER,Rat prost. ER; ratio of binding to prostate and uterus receptor,50
same,hERβ RBA*,hERβ [3],17
"C[C@@]12CC[C@H]3c4ccc(O)cc4CC[C@H]3[C@H]1CC[C@H]2O (single isomer, unassigned) [ent-8α-estradiol]",antilipemic activity,[4],antilipemic activity in the case of no feminization
C[C@]12CC[C@@H]3c4ccc(O)cc4CC[C@H]3[C@@H]1C[C@@H](O)[C@@H]2O [Estriol],ERβ/ ER,hERβ [1],1.5
same,hERβ RBA*,"hERβ [3]; relative binding affinity, estradiol = 100",21
"CC[C@@]12CC[C@@H]3[C@H](CCC4=CC(=O)CC[C@H]43)[C@H]1CC[C@]2(O)C#CCl (single isomer, unassigned) [ent-17α-chloroethinyl-17β-hydroxy-18a-homo-estr-4-en-3-one]",Clauberg Test,[5],ineffective
C#C[C@@]1(O)CC[C@@H]2[C@H]3CCc4cc(O)ccc4[C@@H]3CC[C@]21C [17α-Ethinylestradiol],"estrogeneity, relative to estrone",[6],less than 5%

# — patent EP1169336B1, “ENT-STEROIDS AS SELECTIVELY ACTIVE ESTROGENS” (Schering Aktiengesellschaft, priority 1999, dated 2000)
